Tests used:
[1] = system: HUVEC cells; test: HUVEC integrity in RTCA-DP system (normalized cell index); type: cell-based, human
Experimental: The effects of sulfonamides 1–8 on the integrity and barrier properties of HUVEC were examined in real-time using a cell electric impedance monitoring system (Real-Time Cell Analyzer; Roche & ACEA Biosciences, Santa Clara, CA, USA), which is based on tracking electrical impedance signals. Any changes in cell status, adhesion, and morphology are expressed by parameter Cell Index (CI). The experimental protocol has been described previously. Briefly, the cells were seeded at a density of 15,000 cells per well on E-16 plates (Roche & ACEA Biosciences, Santa Clara, CA, USA), and cultured until the cells achieved plateau phase. Then, the medium was discarded from each well, and the solutions of the test compounds dissolved in cell culturing medium (100 μL) or pure medium (100 μL, control) were added. The measurements were then carried out for 48 h. The results are presented as mean ± SD of ‘normalized cell index’ (nCI), which is calculated by the division of a CI value at a certain time point by the CI value at a reference time point. The experiments were conducted in multiplicate (n = 4–6). The method was validated and the coefficient of variability (CV) was calculated as 9.17%–15.2%, depending on the measured time point (n = 6).

[2] = target: antithrombin III (AT) (Homo sapiens, UniProt P01008); test: Activity of antithrombin III (AT); type: biochemical
Sequence of antithrombin III (AT) (P01008 33-464): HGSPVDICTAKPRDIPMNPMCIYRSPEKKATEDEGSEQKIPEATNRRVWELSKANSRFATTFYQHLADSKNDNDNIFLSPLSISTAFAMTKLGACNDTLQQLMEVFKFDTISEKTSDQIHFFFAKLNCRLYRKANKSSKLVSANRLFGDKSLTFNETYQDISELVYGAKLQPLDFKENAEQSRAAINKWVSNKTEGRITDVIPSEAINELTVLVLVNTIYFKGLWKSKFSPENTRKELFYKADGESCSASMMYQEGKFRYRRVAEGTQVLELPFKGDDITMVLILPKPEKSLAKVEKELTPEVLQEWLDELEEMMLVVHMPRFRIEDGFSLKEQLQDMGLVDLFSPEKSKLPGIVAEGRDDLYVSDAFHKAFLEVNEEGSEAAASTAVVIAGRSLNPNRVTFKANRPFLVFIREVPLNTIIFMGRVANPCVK
Experimental: The activity of AT in human plasma was estimated spectrophotometrically using a diagnostic laboratory method. […] In the control samples, 10 μL of distilled water and methanol (1:1) was used. The reaction was initiated by the addition of a chromogenic substrate dissolved in water for injection; as a result, p-nitroaniline was released proportionally to the level of AT. The evaluation of AT level was performed on the basis of a calibration curve performed on calibrator diluted in the range 1:30–1:120 (λ = 405 nm) by the coagulometer program (CoagChrom-3003 Bio Ksel, Grudziadz, Poland). The coefficient of variability for the method (CV) was 2.69%, and the reference range was 80%–130%.

[3] = system: coagulation in human citrate plasma; test: Coagulation assay (endogenous thrombin generation); type: biochemical
Experimental: These reagents induce a feedback reaction leading to the generation of endogenous thrombin, and coagulation. The other experimental conditions were the same as for the CL-test (Section 4.12).
The obtained curves were analyzed using dedicated software that estimates the following parameters: TGt—thrombin generation time (s), Fmax—maximum clotting (%T), Tf—plasma clotting time (s), Fvo—initial plasma clotting velocity (%T/min), Sf—area under the clot formation curve (%Txmin), Tc—clot stabilization time (s), S—area under the curve of coagulation (%Txmin).

SMILES: CCCCCCCCS(=O)(=O)NC(N)=NC(=N)N(C)C [Compound 2]
- normalized Cell Index (nCI) ([1]; 0.3 mM, 3 hours): 0.608 ± 0.038
- normalized Cell Index (nCI) ([1]; 0.3 mM, 6 hours): 0.693 ± 0.022
- normalized Cell Index (nCI) ([1]; 0.3 mM, 12 hours): 0.676 ± 0.047
- normalized Cell Index (nCI) ([1]; 0.3 mM, 24 hours): 0.522 ± 0.030
- normalized Cell Index (nCI) ([1]; 0.3 mM, 36 hours): 0.761 ± 0.008
- normalized Cell Index (nCI) ([1]; 1.0 mM, 3 hours): 0.652 ± 0.006
- normalized Cell Index (nCI) ([1]; 1.0 mM, 6 hours): 0.706 ± 0.007
- normalized Cell Index (nCI) ([1]; 1.0 mM, 12 hours): 0.719 ± 0.005
- normalized Cell Index (nCI) ([1]; 1.0 mM, 24 hours): 0.731 ± 0.002
- normalized Cell Index (nCI) ([1]; 1.0 mM, 36 hours): 0.379 ± 0.032
- activity of AT III ([2]; 0.06 mM): 121.00 ± 4.90%
- activity of AT III ([2]; 0.3 mM): 127.75 ± 10.44%
- activity of AT III ([2]; 0.6 mM): 125.75 ± 10.87%
- activity of AT III ([2]; 1.5 mM): 129.00 ± 11.46%
- Fmax—maximum clotting ([3]; 0.06 mM): 85.20 ± 6.52 %T
- Fvo—initial plasma clotting velocity ([3]; 0.06 mM): 124.35 ± 37.66 %T/min
- Sc—area under the curve of a stable clot formation ([3]; 0.06 mM): 562.66 ± 156.02 %T x min
- Sf—area under the clot formation curve ([3]; 0.06 mM): 91.44 ± 30.65 %T x min
- S—overall potential of clot formation ([3]; 0.06 mM): 1638.19 ± 135.59 %T x min
- TGt—thrombin generation time ([3]; 0.06 mM): 151.33 ± 26.37 s
- Tf—plasma clotting time ([3]; 0.06 mM): 98.28 ± 33.46 s
- Fmax—maximum clotting ([3]; 0.3 mM): 85.12 ± 5.67 %T
- Fvo—initial plasma clotting velocity ([3]; 0.3 mM): 142.17 ± 46.90 %T/min
- Sc—area under the curve of a stable clot formation ([3]; 0.3 mM): 602.85 ± 84.63 %T x min
- Sf—area under the clot formation curve ([3]; 0.3 mM): 79.63 ± 20.32 %T x min
- S—overall potential of clot formation ([3]; 0.3 mM): 1641.98 ± 118.29 %T x min
- TGt—thrombin generation time ([3]; 0.3 mM): 135.67 ± 25.90 s
- Tf—plasma clotting time ([3]; 0.3 mM): 85.08 ± 25.10 s
- Fmax—maximum clotting ([3]; 0.6 mM): 83.60 ± 6.72 %T
- Fvo—initial plasma clotting velocity ([3]; 0.6 mM): 140.83 ± 37.45 %T/min
- Sc—area under the curve of a stable clot formation ([3]; 0.6 mM): 583.07 ± 90.13 %T x min
- Sf—area under the clot formation curve ([3]; 0.6 mM): 88.00 ± 18.58 %T x min
- S—overall potential of clot formation ([3]; 0.6 mM): 1611.84 ± 135.58 %T x min
- TGt—thrombin generation time ([3]; 0.6 mM): 153.33 ± 21.05 s
- Tf—plasma clotting time ([3]; 0.6 mM): 91.58 ± 19.43 s
- Fmax—maximum clotting ([3]; 1.5 mM): 76.35 ± 9.75 %T
- Fvo—initial plasma clotting velocity ([3]; 1.5 mM): 120.32 ± 48.40 %T/min
- Sc—area under the curve of a stable clot formation ([3]; 1.5 mM): 511.33 ± 178.11 %T x min
- Sf—area under the clot formation curve ([3]; 1.5 mM): 87.66 ± 44.66 %T x min
- S—overall potential of clot formation ([3]; 1.5 mM): 1467.86 ± 181.79 %T x min
- TGt—thrombin generation time ([3]; 1.5 mM): 170.50 ± 31.73 s
- Tf—plasma clotting time ([3]; 1.5 mM): 101.45 ± 38.76 s
